Measurements published in US6160004A, “C-10 carbon-substituted artemisinin-like trioxane compounds having antimalarial, antiproliferative and antitumor activities” (priority 1998, dated 2000).

What was measured:
HL-60(TB) = test: cells; format: cell-based; conditions: Homo sapiens
SR = test: cells; format: cell-based; conditions: Homo sapiens, leukemia, 48 h
A549/ATCC = test: NCI 60 cell line panel screening assay (SRB), A549/ATCC; format: cell-based; conditions: Homo sapiens, non-small cell lung cancer, 48 h, read-out: Log10 GI50 (converted)
EKVX = test: NCI 60 cell line panel screening assay (SRB), EKVX; format: cell-based; conditions: Homo sapiens, non-small cell lung cancer, 48 h, read-out: Log10 GI50 (converted)
HOP-92 = test: cells; format: cell-based; conditions: Homo sapiens, HOP-92, non-small cell lung cancer, 48 h
NCI-H226 = test: cells; format: cell-based; conditions: Homo sapiens, NCI-H226, 48 h, read-out: Log10 GI50 (converted)
NCI-H460 = test: cells; format: cell-based; conditions: Homo sapiens; NCI-H460, non-small cell lung cancer, 48 h; read-out: Log10 GI50 (converted)
NCI-H522 = test: cells; format: cell-based; conditions: Homo sapiens
COLO 205 = test: NCI 60 cell line panel screening assay (SRB), COLO 205; format: cell-based; conditions: Homo sapiens
HCT-116 = test: cells; format: cell-based; conditions: Homo sapiens, HCT-116, 48 h
HT29 = test: cells; format: cell-based; conditions: Homo sapiens, HT-29, HT29, colon cancer, 48 h
KM12 = test: cells; format: cell-based; conditions: Homo sapiens, KM12, colon cancer, 48 h
SF-268 = test: cells; format: cell-based; conditions: Homo sapiens, SF-268, CNS cancer, 48 h
SF-295 = test: cells; format: cell-based; conditions: Homo sapiens, SF-295, CNS cancer, 48 h
SF-539 = test: cells; format: cell-based; conditions: Homo sapiens, SF-539, CNS cancer, 48 h
SNB-75 = test: cells; format: cell-based; conditions: Homo sapiens; SNB-75, CNS cancer, 48 h; read-out: Log10 LC50 (converted)
LOX IMVI = test: cells; format: cell-based; conditions: Homo sapiens, melanoma, 48 h
MALME-3M = test: cells; format: cell-based; conditions: Homo sapiens, 48 h
SK-MEL-2 = test: cells; format: cell-based; conditions: Homo sapiens, SK-MEL-2, melanoma, 48 h
SK-MEL-28 = test: cells; format: cell-based; conditions: Homo sapiens, SK-MEL-28, melanoma, 48 h
OVCAR-4 = test: cells; format: cell-based; conditions: Homo sapiens
ACHN = test: NCI 60 cell line panel screening assay (SRB), ACHN; format: cell-based; conditions: Homo sapiens, renal cancer, 48 h
CAKI-1 = test: NCI 60 cell line panel screening assay (SRB), CAKI-1; format: cell-based; conditions: Homo sapiens
UO-31 = test: NCI 60 cell line panel screening assay (SRB), UO-31; format: cell-based; conditions: Homo sapiens, UO-31, renal cancer, 48 h
MCF7/ADR-RES = test: cells; format: cell-based; conditions: Homo sapiens, MCF7/ADR-RES, breast cancer, 48 h
MDA-MB231/ATCC = test: cells; format: cell-based; conditions: Homo sapiens, MDA-MB-231, breast cancer, 48 h
MDA-MB435 = test: NCI 60 cell line panel screening assay (SRB), MDA-MB435; format: cell-based; conditions: Homo sapiens
[1] = tested on: chloroquine-sensitive P. falciparum (NF54); test: In vitro antimalarial activity ([3H]hypoxanthine incorporation); format: cell-based
MOLT-4 = conditions: MOLT-4, FIG. 6
NCI-H322M = test: cells; conditions: Homo sapiens, 48 h
60 cell line panel = test: NCI 60 cell line panel, whole panel
[2] = read-out: Log10 GI50 (converted)
[3] = read-out: Log10 LC50 (converted)

CC1CCC2C(C)C(CC(=O)c3cccc(C(=O)CC4OC5OC6(C)CCC7C(C)CCC(C4C)C57OO6)c3)OC3OC4(C)CCC1C32OO4 (centres unmarked) [Dimer 39]
CC50 (HL-60(TB); HL-60, 48 h, read-out: Log10 LC50 (converted)): > 100 µM
GI50 (HL-60(TB); HL-60(TB), leukemia, 48 h, read-out: Log10 GI50 (converted)): > 100 µM
IC (TGI) (HL-60(TB); HL-60(TB), leukemia, 48 h, read-out: Log10 TGI): > 100 µM
GI50 (SR; [2]): > 100 µM
CC50 (SR; [3]): > 100 µM
IC (TGI) (SR; read-out: Log10 TGI): > 100 µM
GI50 (A549/ATCC): > 100 µM
GI50 (EKVX): > 100 µM
GI50 (HOP-92; [2]): > 100 µM
CC50 (HOP-92; [3]): > 100 µM
GI50 (NCI-H226): 29.5 µM
GI50 (NCI-H460): > 100 µM
CC50 (NCI-H522; NCI-H522, 48 h, read-out: Log10 LC50 (converted)): > 100 µM
GI50 (NCI-H522; NCI-H522, non-small cell lung cancer, 48 h, read-out: Log10 GI50 (converted)): > 100 µM
CC50 (COLO 205; COLO 205, 48 h, read-out: Log10 LC50 (converted)): > 100 µM
GI50 (COLO 205; COLO 205, colon cancer, 48 h, read-out: Log10 GI50 (converted)): > 100 µM
GI50 (HCT-116; [2]): > 100 µM
CC50 (HCT-116; [3]): > 100 µM
GI50 (HT29; [2]): > 100 µM
CC50 (HT29; [3]): > 100 µM
GI50 (KM12; [2]): > 100 µM
CC50 (KM12; [3]): > 100 µM
GI50 (SF-268; [2]): > 100 µM
CC50 (SF-268; [3]): > 100 µM
GI50 (SF-295; [2]): > 100 µM
CC50 (SF-295; [3]): > 100 µM
GI50 (SF-539; [2]): > 100 µM
CC50 (SF-539; [3]): > 100 µM
CC50 (SNB-75): > 100 µM
GI50 (LOX IMVI; [2]): > 100 µM
CC50 (LOX IMVI; [3]): > 100 µM
IC (TGI) (LOX IMVI; read-out: Log10 TGI (converted)): > 100 µM
IC (TGI) (MALME-3M; Malme-3M, read-out: Log10 TGI): > 100 µM
GI50 (MALME-3M; MALME-3M, melanoma, read-out: Log10 GI50 (converted)): > 100 µM
LC50 (50% lethal concentration) (MALME-3M; MALME-3M, melanoma, read-out: Log10 LC50 (converted)): > 100 µM
GI50 (SK-MEL-2; [2]): > 100 µM
CC50 (SK-MEL-2; [3]): > 100 µM
IC (TGI) (SK-MEL-2; read-out: Log10 TGI): > 100 µM
GI50 (SK-MEL-28; [2]): > 100 µM
CC50 (SK-MEL-28; [3]): > 100 µM
IC (TGI) (SK-MEL-28; read-out: Log10 TGI): > 100 µM
IC (TGI) (OVCAR-4; OVCAR-4, 48 h, read-out: Log10 TGI): > 100 µM
GI50 (OVCAR-4; OVCAR-4, ovarian cancer, 48 h, read-out: Log10 GI50 (converted)): > 100 µM
CC50 (OVCAR-4; OVCAR-4, ovarian cancer, 48 h, read-out: Log10 LC50 (converted)): > 100 µM
GI50 (ACHN; [2]): > 100 µM
IC (TGI) (ACHN; read-out: Log10 TGI): > 100 µM
CC50 (CAKI-1; CAKI-1, 48 h, read-out: Log10 LC50 (converted)): > 100 µM
GI50 (CAKI-1; CAKI-1, renal cancer, 48 h, read-out: Log10 GI50 (converted)): > 100 µM
IC (TGI) (CAKI-1; CAKI-1, renal cancer, 48 h, read-out: Log10 TGI (converted)): > 100 µM
GI50 (UO-31; [2]): > 100 µM
CC50 (UO-31; [3]): > 100 µM
IC (TGI) (UO-31; read-out: Log10 TGI): > 100 µM
GI50 (MCF7/ADR-RES; [2]): > 100 µM
CC50 (MCF7/ADR-RES; [3]): > 100 µM
GI50 (MDA-MB231/ATCC; [2]): > 100 µM
CC50 (MDA-MB231/ATCC; [3]): > 100 µM
CC50 (MDA-MB435; MDA-MB-435, 48 h, read-out: Log10 LC50 (converted)): > 100 µM
GI50 (MDA-MB435; MDA-MB-435, printed MDA-MBA35, breast cancer, 48 h, read-out: Log10 GI50 (converted)): > 100 µM
in vitro antimalarial potency relative to artemisinin ([1]; P. falciparum NF54): more potent than artemisinin
IC50 ([1]; Plasmodium falciparum, chloroquine-sensitive P. falciparum NF54, in vitro): 0.0019 µM
concentration for cytostasis (PG 0) (MOLT-4): greater than 10^-4 M
GI50 (NCI-H322M; [2]): > 100 µM
CC50 (NCI-H322M; [3]): > 100 µM
IC (TGI) (NCI-H322M; read-out: Log10 TGI): > 100 µM
IC (TGI) (60 cell line panel; 60 cell, read-out: MG MID of Log10 TGI): 100 µM
CC50 (60 cell line panel; Homo sapiens, 60 cell, read-out: MG MID of Log10 LC50 (converted)): 100 µM
Delta of Log10 TGI (60 cell line panel; panel): 0.00
Range of Log10 TGI (60 cell line panel; panel): 0.00
